# Results as given in patent publication US4758580A, “Inhibiting growth of tumors with certain substituted phenoxy dimethyl alkanoic acids, esters or salts” (Yamanouchi Pharmaceutical Co., Ltd., priority 1985, dated 1988).
# Key:
# Ehrlich solid tumor = experiment: Anti-tumor test against Ehrlich solid tumor; assay type: in vivo, ddY/SLC mice
# Protocol: Ehrlich tumor cells, 2×10^6, on Day 7 after intraperitoneal transplantation to ddY/SLC mice were subcutaneously transplanted in the left abdomen of ddY/SLC mice (5 week age, male), 10 each grouped into one. The active component was intraperitoneally or orally administered in a definite dose 24 hours after the transplantation, according to the schedule shown in Table 1 (A), (B) or (C). An effect of inhibiting growth of tumor was compared, by measuring the long diameter and short diameter of the tumor on 14, 20 and 21 Days after the transplantation, calculating the tumor size (mm^2) and determining a tumor growth inhibition rate of the group administered with the active component to the control group according to the following equation:
# Growth inhibition rate (%)=(C-T)/C×100
# T: means tumor size (mm^2) in the active component-administered group
# C: mean tumor size (mm^2) in the control group
# melanoma BL-6 = experiment: Inhibition of experimental metastasis (to the lung) of melanoma BL-6 in mice; assay type: in vivo, male BDF1 /SLC mice; conditions: 22th day
# Protocol: (b) Inhibition of experimental metastasis (to the lung) of melanoma BL-6 in mice
# BL-6 cancer cells, 5×10^4, were inoculated into the tail veins of male BDF1 /SLC mice (6 week age) of 6 mice each being grouped in one (13 mice for the control group). The test compounds were administered orally in a definite dose 24 hours after the inoculation. In order to see metastasis-inhibitory effect, on 22th day after the inoculation, the mice were anatomised to observe the metastasis to the lungs. The degree of metastasis was evaluated by the number of pulmonary nodules. [formula] T: Median number of pulmonary nodules of the administered group C: Median number of pulmonary nodules of the control group
# MM-46 solid tumor = experiment: Test against mouse mammalian MM-46 solid tumor; assay type: in vivo, C3 H/He/SLC mice; conditions: 1-9 Days
# Protocol: (§1) MM-46 Tumor cells, 1×10^6, on Day 7 after intraperitoneal transplantation to C3 H/He/SLC mice were subcutaneously transplanted to the left abdomen of C3 H/He/SLC mice (5 week age, male) of 8 mice each being grouped in one (21 mice for the control group). The active component was orally administered in a definite dose 24 hours after the transplantation according to the schedule shown in Table 2. An effect of tumor growth inhibition was compared by measuring the long diameter and short diameter of the tumor on Days 14 and 21 after the transplantation, calculating the tumor size (mm^2) and determining a tumor growth inhibition rate of the active component-administered group to the control group.
# Meth A solid tumor = experiment: Anti-tumor test against methyl cholanthrene-induced Meth A solid tumor; assay type: in vivo, Balb/C/SLC mice; conditions: 1-8 Days
# Protocol: as §1, with “Meth A tumor” for “MM-46 Tumor”, “1.5×10^6,” for “1×10^6,”, “Balb/C/SLC” for “C3 H/He/SLC”, “(16” for “(21”, “3.” for “2.”, “15” for “14”
# [1] = Day 14, 25 mg/kg i.p., Days 1, 2, 3, 5, 6, 7 & 9
# [2] = Day 14, 50 mg/kg i.p., Days 1, 2, 3, 5, 6, 7 & 9
# [3] = Day 14, 100 mg/kg i.p., Days 1, 2, 3, 5, 6, 7 & 9
# [4] = Day 21, 25 mg/kg i.p., Days 1, 2, 3, 5, 6, 7 & 9
# [5] = Day 21, 50 mg/kg i.p., Days 1, 2, 3, 5, 6, 7 & 9
# [6] = Day 21, 100 mg/kg i.p., Days 1, 2, 3, 5, 6, 7 & 9
# [7] = 50 mg/kg oral, 1, 2, 3, 5, 6, 7, 8, 9 and 10 days
# [8] = 100 mg/kg oral, 1, 2, 3, 5, 6, 7, 8, 9 and 10 days
# [9] = Day 14, 50 mg/kg i.p., Days 1, 2, 3, 4, 6, 7, 8, 9
# [10] = Day 14, 100 mg/kg i.p., Days 1, 2, 3, 4, 6, 7, 8, 9
# [11] = Day 21, 50 mg/kg i.p., Days 1, 2, 3, 4, 6, 7, 8, 9
# [12] = Day 21, 100 mg/kg i.p., Days 1, 2, 3, 4, 6, 7, 8, 9
# [13] = Day 14, 1.0 mg/kg i.p., Days 1, 2, 3, 5 & 6
# [14] = Day 21, 1.0 mg/kg i.p., Days 1, 2, 3, 5 & 6
smiles,measurement,setting,value
"COC(=O)C(C)(C)CCCOc1ccc(OCCCOc2cccnc2)cc1 [Compound I, methyl 2,2-dimethyl-5-[p-[3-(3-pyridyloxy)propoxy]phenoxy]pentanoate]",Growth Inhibition Rate,Ehrlich solid tumor; [1],29.6%
same,Size of Tumor,Ehrlich solid tumor; [1],164.9 ± 96.2 mm^2
same,Growth Inhibition Rate,Ehrlich solid tumor; [2],26.2%
same,Size of Tumor,Ehrlich solid tumor; [2],172.8 ± 82.9 mm^2
same,Growth Inhibition Rate,Ehrlich solid tumor; [3],36.5%
same,Size of Tumor,Ehrlich solid tumor; [3],148.7 ± 66.8 mm^2
same,Growth Inhibition Rate,Ehrlich solid tumor; [4],36.9%
same,Size of Tumor,Ehrlich solid tumor; [4],336.6 ± 160.0 mm^2
same,Growth Inhibition Rate,Ehrlich solid tumor; [5],30.7%
same,Size of Tumor,Ehrlich solid tumor; [5],369.1 ± 203.5 mm^2
same,Growth Inhibition Rate,Ehrlich solid tumor; [6],45.6%
same,Size of Tumor,Ehrlich solid tumor; [6],290.2 ± 115.5 mm^2
CCOC(=O)C(C)(C)CCCCCOc1ccc(OCCCCCn2ccnc2)cc1 [Compound C],Growth Inhibition Rate,Ehrlich solid tumor; [1],18.4%
same,Size of Tumor,Ehrlich solid tumor; [1],191.1 ± 88.8 mm^2
same,Growth Inhibition Rate,Ehrlich solid tumor; [2],42.4%
same,Size of Tumor,Ehrlich solid tumor; [2],135.0 ± 66.9 mm^2
same,Growth Inhibition Rate,Ehrlich solid tumor; [3],54.2%
same,Size of Tumor,Ehrlich solid tumor; [3],107.3 ± 46.7 mm^2
same,Growth Inhibition Rate,Ehrlich solid tumor; [4],31.9%
same,Size of Tumor,Ehrlich solid tumor; [4],363.1 ± 188.8 mm^2
same,Growth Inhibition Rate,Ehrlich solid tumor; [5],61.0%
same,Size of Tumor,Ehrlich solid tumor; [5],207.9 ± 139.7 mm^2
same,Growth Inhibition Rate,Ehrlich solid tumor; [6],4.2%
same,Size of Tumor,Ehrlich solid tumor; [6],190.7 ± 69.1 mm^2
"O=c1[nH]c(=O)n(C2CCCO2)cc1F (stereo not shown) [Futoraful, reference compound]",Pulmonary metastasis-inhibition rate,melanoma BL-6; [7],35.7%
same,"The number of pulmonary nodules, median",melanoma BL-6; [7],13.5
same,"The number of pulmonary nodules, range",melanoma BL-6; [7],1-49
same,Pulmonary metastasis-inhibition rate,melanoma BL-6; [8],69.0%
same,"The number of pulmonary nodules, median",melanoma BL-6; [8],6.5
same,"The number of pulmonary nodules, range",melanoma BL-6; [8],1-16
"O=c1[nH]c(=O)n(C2CCCO2)cc1F (stereo not shown) [Tetrahydrofuryl-5-fluorouracil, reference compound]",Growth Inhibition Rate,"MM-46 solid tumor; Day 14, 50 mg/kg p.o.",14.2%
same,Size of Tumor,"MM-46 solid tumor; Day 14, 50 mg/kg p.o.",216.0 ± 55.1 mm^2
same,Growth Inhibition Rate,"MM-46 solid tumor; Day 14, 100 mg/kg p.o.",14.7%
same,Size of Tumor,"MM-46 solid tumor; Day 14, 100 mg/kg p.o.",214.8 ± 55.6 mm^2
same,Growth Inhibition Rate,"MM-46 solid tumor; Day 21, 50 mg/kg p.o.",26.9%
same,Size of Tumor,"MM-46 solid tumor; Day 21, 50 mg/kg p.o.",247.0 ± 101.8 mm^2
same,Growth Inhibition Rate,"MM-46 solid tumor; Day 21, 100 mg/kg p.o.",26.0%
same,Size of Tumor,"MM-46 solid tumor; Day 21, 100 mg/kg p.o.",250.1 ± 92.9 mm^2
same,Growth Inhibition Rate,"Meth A solid tumor; Day 15, 50 mg/kg p.o.",45.1%
same,Size of Tumor,"Meth A solid tumor; Day 15, 50 mg/kg p.o.",123.4 ± 69.9 mm^2
same,Growth Inhibition Rate,"Meth A solid tumor; Day 15, 100 mg/kg p.o.",58.6%
same,Size of Tumor,"Meth A solid tumor; Day 15, 100 mg/kg p.o.",93.1 ± 50.3 mm^2
same,Growth Inhibition Rate,"Meth A solid tumor; Day 21, 50 mg/kg p.o.",50.7%
same,Size of Tumor,"Meth A solid tumor; Day 21, 50 mg/kg p.o.",235.8 ± 124.4 mm^2
same,Growth Inhibition Rate,"Meth A solid tumor; Day 21, 100 mg/kg p.o.",44.7%
same,Size of Tumor,"Meth A solid tumor; Day 21, 100 mg/kg p.o.",264.4 ± 110.6 mm^2
"CCOC(=O)C(C)(C)CCCCOc1ccc(OCCCCCOc2ccccn2)cc1 [Compound J, ethyl 6-[p-[5-(2-pyridyloxy)pentyloxy)phenoxy]-2,2-dimethylhexanoate]",Growth Inhibition Rate,Ehrlich solid tumor; [9],20.9%
same,Size of Tumor,Ehrlich solid tumor; [9],201.7 ± 48.2 mm^2
same,Growth Inhibition Rate,Ehrlich solid tumor; [10],34.7%
same,Size of Tumor,Ehrlich solid tumor; [10],166.5 ± 65.3 mm^2
same,Growth Inhibition Rate,Ehrlich solid tumor; [11],19.2%
same,Size of Tumor,Ehrlich solid tumor; [11],344.7 ± 108.4 mm^2
same,Growth Inhibition Rate,Ehrlich solid tumor; [12],38.2%
same,Size of Tumor,Ehrlich solid tumor; [12],263.5 ± 97.1 mm^2
"CO[C@@]12[C@H](COC(N)=O)C3=C(C(=O)C(C)=C(N)C3=O)N1C[C@@H]1N[C@@H]12 [Mitomycin, reference compound]",Growth Inhibition Rate,Ehrlich solid tumor; [13],67.7%
same,Size of Tumor,Ehrlich solid tumor; [13],75.6 ± 31.5 mm^2
same,Growth Inhibition Rate,Ehrlich solid tumor; [14],80.0%
same,Size of Tumor,Ehrlich solid tumor; [14],106.8 ± 62.2 mm^2
